29 molecules from patent US9624170B2, “4-(piperrazin-1-yl)-pyrrolidin-2-one compounds as monoacylglycerol lipase (MAGL) inhibitors” (TAKEDA PHARMACEUTICAL COMPANY LIMITED, priority 2013, dated 2017) can be followed below.

This test addresses T1, human MAGL (His-hMAGL) (Homo sapiens, UniProt Q99685).
T1 construct: made in house; host or cells: Escherichia coli BL21(DE3)
T1 sequence (Q99685 1-303): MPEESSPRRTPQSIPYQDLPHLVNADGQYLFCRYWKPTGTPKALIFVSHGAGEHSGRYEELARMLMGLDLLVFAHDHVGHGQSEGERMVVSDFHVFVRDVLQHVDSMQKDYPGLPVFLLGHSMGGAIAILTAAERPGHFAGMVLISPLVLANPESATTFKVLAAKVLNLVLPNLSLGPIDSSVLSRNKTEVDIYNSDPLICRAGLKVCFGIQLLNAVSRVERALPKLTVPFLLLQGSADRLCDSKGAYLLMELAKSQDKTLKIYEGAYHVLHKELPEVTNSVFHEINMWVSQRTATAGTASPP
Nature of the test: Measurement of MAGL inhibitory activity by mass spectrometry. It is filed as biochemical. To be noted: MAGL inhibitory rate, test compound 10 μM, His-hMAGL, substrate 2-arachidonylglycerol, RapidFire-mass spectrometry. In short, it runs like this:
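His-tagged human MAGL was reacted with 150 μM 2-arachidonylglycerol substrate (stock, added by 5 μL) for 10 min at room temperature, then stopped with formic acid. Arachidonic acid product was quantified by RapidFire–triple-quadrupole MS in negative SRM mode, corrected by arachidonic acid-d8, and converted to percent inhibition.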
The term inhibition denotes the drop in the measured response relative to a control, in per cent. For `O=C(c1nccs1)N1CCN(C2CC(=O)N(c3cccc(-c4nsc5ccccc45)c3)C2)CC1` (centres unmarked) [Example 334, 1-(3-(1,2-benzothiazol-3-yl)phenyl)-4-(4-(1,3-thiazol-2-ylcarbonyl)piperazin-1-yl)pyrrolidin-2-one], the inhibition at 10 µM turned out to be 103%.

In the case of `Cc1nc2ccccn2c1-c1cccc(N2CC(N3CCN(C(=O)c4nccs4)CC3)CC2=O)c1` (centres unmarked) [Example 335, 1-(3-(2-methylimidazo[1,2-a]pyridin-3-yl)phenyl)-4-(4-(1,3-thiazol-2-ylcarbonyl)piperazin-1-yl)pyrrolidin-2-one], the inhibition at 10 µM was 101%.

Take `N#Cc1cccc(F)c1-c1cccc(N2CC(N3CCN(C(=O)c4nccs4)CC3)CC2=O)c1` (centres unmarked) [Example 336, 6-fluoro-3′-(2-oxo-4-(4-(1,3-thiazol-2-ylcarbonyl)piperazin-1-yl)pyrrolidin-1-yl)biphenyl-2-carbonitrile]: the inhibition at 10 µM came to 100%.

Regarding `O=C(c1nccs1)N1CCN(C2CC(=O)N(c3cccc(-c4c[nH]c5ncccc45)c3)C2)CC1` (centres unmarked) [Example 337, 1-(3-(1H-pyrrolo[2,3-b]pyridin-3-yl)phenyl)-4-(4-(1,3-thiazol-2-ylcarbonyl)piperazin-1-yl)pyrrolidin-2-one], the inhibition at 10 µM amounted to 99%.

In the case of `O=C(c1nccs1)N1CCN(C2CC(=O)N(c3cccc(-c4cccc5ccnn45)c3)C2)CC1` (centres unmarked) [Example 338, 1-(3-(pyrazolo[1,5-a]pyridin-7-yl)phenyl)-4-(4-(1,3-thiazol-2-ylcarbonyl)piperazin-1-yl)pyrrolidin-2-one], the inhibition at 10 µM worked out at 98%.

For `COc1nccc(C)c1-c1cccc(N2CC(N3CCN(C(=O)c4nccs4)CC3)CC2=O)c1` (centres unmarked) [Example 339, 1-(3-(2-methoxy-4-methylpyridin-3-yl)phenyl)-4-(4-(1,3-thiazol-2-ylcarbonyl)piperazin-1-yl)pyrrolidin-2-one], the inhibition at 10 µM was found to be 100%.

`O=C(c1nccs1)N1CCN(C2CC(=O)N(c3cccc(-c4cccc5nccn45)c3)C2)CC1` (centres unmarked) [Example 340, 1-(3-(imidazo[1,2-a]pyridin-5-yl)phenyl)-4-(4-(1,3-thiazol-2-ylcarbonyl)piperazin-1-yl)pyrrolidin-2-one]: the inhibition at 10 µM was 99%.

As for `O=C(c1nccs1)N1CCN(C2CC(=O)N(c3cccc(-c4ccsc4C(F)(F)F)c3)C2)CC1` (centres unmarked) [Example 341, 4-(4-(1,3-thiazol-2-ylcarbonyl)piperazin-1-yl)-1-(3-(2-(trifluoromethyl)-3-thienyl)phenyl)pyrrolidin-2-one], the inhibition at 10 µM amounted to 101%.

`O=C(c1nccs1)N1CCN(C2CC(=O)N(c3cccc(-c4cccn5ccnc45)c3)C2)CC1` (centres unmarked) [Example 342, 1-(3-(imidazo[1,2-a]pyridin-8-yl)phenyl)-4-(4-(1,3-thiazol-2-ylcarbonyl)piperazin-1-yl)pyrrolidin-2-one]: the inhibition at 10 µM worked out at 100%.

With `COc1nccc2[nH]cc(-c3cccc(N4CC(N5CCN(C(=O)c6nccs6)CC5)CC4=O)c3)c12` (centres unmarked) [Example 343, 1-(3-(4-methoxy-1H-pyrrolo[3,2-c]pyridin-3-yl)phenyl)-4-(4-(1,3-thiazol-2-ylcarbonyl)piperazin-1-yl)pyrrolidin-2-one], the inhibition at 10 µM came out at 101%.

Turning to `O=C(c1nccs1)N1CCN(C2CC(=O)N(c3cccc(-c4c(F)cccc4Cl)c3)C2)CC1` (centres unmarked) [Example 344, 1-(2′-chloro-6′-fluorobiphenyl-3-yl)-4-(4-(1,3-thiazol-2-ylcarbonyl)piperazin-1-yl)pyrrolidin-2-one], the inhibition at 10 µM stood at 98%.

As to `Cc1cn2c(-c3cccc(N4CC(N5CCN(C(=O)c6nccs6)CC5)CC4=O)c3)cccc2n1` (centres unmarked) [Example 345, 1-(3-(2-methylimidazo[1,2-a]pyridin-5-yl)phenyl)-4-(4-(1,3-thiazol-2-ylcarbonyl)piperazin-1-yl)pyrrolidin-2-one], the inhibition at 10 µM stood at 97%.

Turning to `O=C(c1nccs1)N1CCN(C2CC(=O)N(c3cccc(-c4ccnc5sccc45)c3)C2)CC1` (centres unmarked) [Example 346, 4-(4-(1,3-thiazol-2-ylcarbonyl)piperazin-1-yl)-1-(3-(thieno[2,3-b]pyridin-4-yl)phenyl)pyrrolidin-2-one], the inhibition at 10 µM came to 99%.

For the molecule `O=C(c1nccs1)N1CCN(C2CC(=O)N(c3cccc(-c4csc5ncccc45)c3)C2)CC1` (centres unmarked) [Example 347, 4-(4-(1,3-thiazol-2-ylcarbonyl)piperazin-1-yl)-1-(3-(thieno[2,3-b]pyridin-3-yl)phenyl)pyrrolidin-2-one], the inhibition at 10 µM is 100%.

With `O=C1Cc2c(-c3cccc(N4CC(N5CCN(C(=O)c6nccs6)CC5)CC4=O)c3)ccnc2N1` (centres unmarked) [Example 348, 4-(3-(2-oxo-4-(4-(1,3-thiazol-2-ylcarbonyl)piperazin-1-yl)pyrrolidin-1-yl)phenyl)-1,3-dihydro-2H-pyrrolo[2,3-b]pyridin-2-one], the inhibition at 10 µM worked out at 99%.

In the case of `O=C(c1nccs1)N1CCN(C2CC(=O)N(c3cccc(-c4nc(C(F)(F)F)cs4)c3)C2)CC1` (centres unmarked) [Example 349, 4-(4-(1,3-thiazol-2-ylcarbonyl)piperazin-1-yl)-1-(3-(4-(trifluoromethyl)-1,3-thiazol-2-yl)phenyl)pyrrolidin-2-one], the inhibition at 10 µM stood at 98%.

As to `O=C(c1nccs1)N1CCN(C2CC(=O)N(c3cc(F)cc(-c4ccccc4Cl)c3)C2)CC1` (centres unmarked) [Example 350, 1-(2′-chloro-5-fluorobiphenyl-3-yl)-4-(4-(1,3-thiazol-2-ylcarbonyl)piperazin-1-yl)pyrrolidin-2-one], the inhibition at 10 µM was 104%.

In the case of `COc1c(-c2cccc(N3CC(N4CCN(C(=O)c5nccs5)CC4)CC3=O)c2)ccc2c1NC(=O)C2` (centres unmarked) [Example 351, 7-Methoxy-6-(3-(2-oxo-4-(4-(1,3-thiazol-2-ylcarbonyl)piperazin-1-yl)pyrrolidin-1-yl)phenyl)-1,3-dihydro-2H-indol-2-one], the inhibition at 10 µM worked out at 100%.

Regarding `Cc1ccnc(C)c1-c1cccc(N2CC(N3CCN(C(=O)c4nccs4)CC3)CC2=O)c1` (centres unmarked) [Example 352, 1-(3-(2,4-dimethylpyridin-3-yl)phenyl)-4-(4-(1,3-thiazol-2-ylcarbonyl)piperazin-1-yl)pyrrolidin-2-one], the inhibition at 10 µM was 102%.

`O=C(c1nccs1)N1CCN(C2CC(=O)N(c3cc(-c4ccccc4F)c4[nH]ccc4c3)C2)CC1` (centres unmarked) [Example 353, 1-(7-(2-Fluorophenyl)-1H-indol-5-yl)-4-(4-(1,3-thiazol-2-ylcarbonyl)piperazin-1-yl)pyrrolidin-2-one]: the inhibition at 10 µM was 101%.

Consider `COc1ccccc1-c1cc(N2CC(N3CCN(C(=O)c4nccs4)CC3)CC2=O)cc2cc[nH]c12` (centres unmarked) [Example 354, 1-(7-(2-methoxyphenyl)-1H-indol-5-yl)-4-(4-(1,3-thiazol-2-ylcarbonyl)piperazin-1-yl)pyrrolidin-2-one], for which the inhibition at 10 µM stood at 101%.

As to `COc1ccccc1-c1cc(N2CC(N3CCN(C(=O)c4nccs4)CC3)CC2=O)cc2cn[nH]c12` (centres unmarked) [Example 355, 1-(7-(2-methoxyphenyl)-1H-indazol-5-yl)-4-(4-(1,3-thiazol-2-ylcarbonyl)piperazin-1-yl)pyrrolidin-2-one], the inhibition at 10 µM amounted to 98%.

With `Cc1cc(Cl)ccc1-c1cccc(N2CC(N3CCN(C(=O)c4nccs4)CC3)CC2=O)c1` (centres unmarked) [Example 356, 1-(4′-chloro-2′-methylbiphenyl-3-yl)-4-(4-(1,3-thiazol-2-ylcarbonyl)piperazin-1-yl)pyrrolidin-2-one], the inhibition at 10 µM stood at 98%.

On to `Cc1cc(Cl)ccc1-c1cc(F)cc(N2CC(N3CCN(C(=O)c4nccs4)CC3)CC2=O)c1` (centres unmarked) [Example 357, 1-(4′-chloro-5-fluoro-2′-methylbiphenyl-3-yl)-4-(4-(1,3-thiazol-2-ylcarbonyl)piperazin-1-yl)pyrrolidin-2-one], for which the inhibition at 10 µM is 101%.

Turning to `Cc1cnc(-n2ccc3cc(N4CC(N5CCN(C(=O)c6nccs6)CC5)CC4=O)ccc32)nc1` (centres unmarked) [Example 358, 1-(1-(5-methylpyrimidin-2-yl)-1H-indol-5-yl)-4-(4-(1,3-thiazol-2-ylcarbonyl)piperazin-1-yl)pyrrolidin-2-one], the inhibition at 10 µM stood at 102%.

Consider `C[C@@H]1CN(C(=O)c2nccs2)CCN1C1CC(=O)N(c2ccc3c(ccn3-c3ccc(F)cc3)c2)C1` (stereo partly drawn) [Example 359, 1-(1-(4-fluorophenyl)-1H-indol-5-yl)-4-((2R)-2-methyl-4-(1,3-thiazol-2-ylcarbonyl)piperazin-1-yl)pyrrolidin-2-one], for which the inhibition at 10 µM is 96%.

Regarding `O=C1CC(N2CCN(c3ncccn3)CC2)CN1c1ccc2c(ccn2-c2ccnc(C(F)(F)F)c2)c1` (centres unmarked) [Example 361, 4-(4-(pyrimidin-2-yl)piperazin-1-yl)-1-(1-(2-(trifluoromethyl)pyridin-4-yl)-1H-indol-5-yl)pyrrolidin-2-one], the inhibition at 10 µM was 92%.

Turning to `Cc1nccnc1-c1cccc(N2CC(N3CCN(C(=O)c4nccs4)CC3)CC2=O)c1` (centres unmarked) [Example 362, 1-(3-(3-methylpyrazin-2-yl)phenyl)-4-(4-(1,3-thiazol-2-ylcarbonyl)piperazin-1-yl)pyrrolidin-2-one], the inhibition at 10 µM was 92%.

As for `C[C@H]1CN(C2CC(=O)N(c3ccc4c(ccn4-c4ccc(F)cc4)c3)C2)CCN1C(=O)c1nccs1` (stereo partly drawn) [Example 363, 1-(1-(4-fluorophenyl)-1H-indol-5-yl)-4-((3S)-3-methyl-4-(1,3-thiazol-2-ylcarbonyl)piperazin-1-yl)pyrrolidin-2-one], the inhibition at 10 µM was 96%.
